Measured values: patent US5488051A, “Substituted 5,6-dihydro-5-oxo-1,4-dithiino-(2,3-d)-pyridazine-2,3-dicarbonitriles, compositions containing them and their use as antimicrobials” (The Dow Chemical Company, priority 1994, dated 1996)
Values after ≈ are worked out from the molar mass of the structure shown. Read-outs that look alike come from different tables or passages of the source.

Assays:
Proteus vulgaris (Pv) = assay: MIC for Proteus vulgaris, nutrient agar; assay type: cell-based, Proteus vulgaris ATCC 881; conditions: 30° C., 48 hours, read-out: Minimum Inhibitory Concentration (MIC), Pv
Experimental: (§1) The minimum inhibitory concentration (MIC) for the compounds listed in Table I is determined for 9 bacteria, using nutrient agar; and 7 yeast and fungi, using malt yeast agar. A one percent solution of the test compound is prepared in a mixture of acetone and water.
(§2) Nutrient agar is prepared at pH 6.8, representing a neutral medium, and at pH 8.2, representing an alkaline medium. The nutrient agars are prepared by adding 23 g of nutrient agar to one-liter of deionized water. In addition, the alkaline medium is prepared by adjusting a 0.04M solution of N-[tris-(hydroxymethyl)methyl]-glycine buffered deionized water with concentrated sodium hydroxide to a pH of 8.5.
(§3) The test tubes containing the malt yeast agar and the nutrient agar are cooled in a water bath until the temperature of the agar is 48° C. Then, an appropriate amount of the one percent solution of the test compound is added (except in the controls where no compound is added) to the respective test tubes so that the final concentrations are zero (0), 1.0, 2.5, 5, 10, 25, 50, 100, 250 and 500 parts per million of the test compound in each of the respective type of agar. The contents of each of the test tubes are then transferred to separate petri plates. After drying for 24 hours, the petri plates containing nutrient agar are inoculated with bacteria and those containing malt yeast agar are inoculated with yeast and fungi.
(§4) The inoculation with bacteria is accomplished by using the following procedure. Twenty-four hour-cultures of each of the bacteria are prepared by incubating the respective bacteria in tubes containing nutrient broth for 24 hours at 30° C. in a shaker. Dilutions of each of the 24 hour-cultures are made so that nine separate suspensions (one for each of the nine test bacteria) are made, each containing 10^8 colony forming units (CFU) per mL of suspension of a particular bacteria. Aliquots of 0.3 mL of each of the bacterial suspensions are used to fill the individual wells of Steer's Replicator. For each microbial suspension, 0.3 mL was used to fill three wells (i.e., three wells of 0.3 mL each) so that for the nine different bacteria, 27 wells are filled. The Steer's Replicator is then used to inoculate both the neutral and alkaline pH nutrient agar petri plates.
(§5) The inoculated petri plates are incubated at 30° C. for 48 hours and then read to determine if the test compound which is incorporated into the agar prevented growth of the respective bacteria.
(§6) Table II list the bacteria, yeast and fungi used in the MIC test described above along with their respective American Type Culture Collection (ATCC) identification numbers.

[1] = tested on: Pseudomonas aeruginosa (Pa); assay: MIC for Pseudomonas aeruginosa, nutrient agar; assay type: cell-based, Pseudomonas aeruginosa ATCC 10145; conditions: 48 hours, read-out: Minimum Inhibitory Concentration (MIC), Pa
Experimental: as §1, §2, §3, §4, §5, §6

Salmonella choleraesuis = assay: MIC for Salmonella choleraesuis, nutrient agar; assay type: cell-based, Salmonella choleraesuis ATCC 10708; conditions: Salmonella enterica, 30° C., 48 hours, read-out: Minimum Inhibitory Concentration (MIC), SC
Experimental: as §1, §2, §3, §4, §5, §6

[2] = tested on: Aureobasidium pullulan (Ap); assay: MIC for Aureobasidium pullulan, malt yeast agar; assay type: cell-based, Aureobasidium pullulan ATCC 16622; conditions: malt yeast agar; 30° C.; 48 hours for yeast and 72 hours for fungi; read-out: Minimum Inhibitory Concentration (MIC), Ap
Experimental: as §1
(§7) Malt yeast agar is prepared by adding 3 g yeast extract and 45 g malt agar per liter of deionized water. The specific agar is dispensed in 30 mL aliquots into 25×200 mm test tubes, capped and autoclaved for 15 minutes at 115° C.
as §3
(§8) The inoculation with the yeast and fungi is accomplished as follows. Cultures of yeast and fungi are incubated for seven days on malt yeast agar at 30° C. These cultures are used to prepare suspensions by the following procedure. A suspension of each organism is prepared by adding 10 mL of sterile saline and 10 microliters of octylphenoxy polyethoxy ethanol to the agar slant of yeast or fungi. The sterile saline/octylphenoxy polyethoxy ethanol solution is then agitated with a sterile swab to suspend the microorganism grown on the slant. Each resulting suspension is diluted into sterile saline (1 part suspension: 9 parts sterile saline). Aliquots of these dilutions are placed in individual wells of Steer's Replicator and petri plates inoculated as previously described. The petri plates are incubated at 30° C. and read after 48 hours for yeast and 72 hours for fungi.
as §6

Saccharomyces cerevisiae = assay: MIC for Saccharomyces cerevisiae, malt yeast agar; assay type: cell-based, Saccharomyces cerevisiae ATCC 4105; conditions: malt yeast agar, 30° C., 48 hours for yeast, read-out: Minimum Inhibitory Concentration (MIC), Sc
Experimental: as §1, §7, §3, §8, §6

[3] = tested on: Pseudomonas aeruginosa (PRD-10); assay: MIC for Pseudomonas aeruginosa PRD-10, nutrient agar; assay type: cell-based, Pseudomonas aeruginosa ATCC 15442; conditions: 30° C., 48 hours, read-out: Minimum Inhibitory Concentration (MIC), PRD
Experimental: as §1, §2, §3, §4, §5, §6

[4] = tested on: Penicillium chrysogenum (Pc); assay: MIC for Penicillium chrysogenum, malt yeast agar; assay type: cell-based, Penicillium chrysogenum ATCC 9480; conditions: malt yeast agar; 30° C., 72 hours for fungi; read-out: Minimum Inhibitory Concentration (MIC), PC
Experimental: as §1, §7, §3, §8, §6

Candida albicans (Ca) = assay: MIC for Candida albicans, malt yeast agar; assay type: cell-based, Candida albicans ATCC 10231; conditions: malt yeast agar; 30° C., 48 hours for yeast; read-out: Minimum Inhibitory Concentration (MIC), Ca
Experimental: as §1, §7, §3, §8, §6

Escherichia coli (Ec) = assay: MIC for Escherichia coli, nutrient agar; assay type: cell-based, Escherichia coli ATCC 11229; conditions: 30° C., 48 hours, read-out: Minimum Inhibitory Concentration (MIC), Ec
Experimental: as §1, §2, §3, §4, §5, §6

Fusarium oxysporum (Fo) = assay: MIC for Fusarium oxysporum, malt yeast agar; assay type: cell-based, Fusarium oxysporum ATCC 48112; conditions: malt yeast agar; 30° C., 72 hours for fungi; read-out: Minimum Inhibitory Concentration (MIC), Fo
Experimental: as §1, §7, §3, §8, §6

Bacillus subtilis (Bs) = assay: MIC for Bacillus subtilis, nutrient agar; assay type: cell-based, Bacillus subtilis ATCC 8473; conditions: 30° C., 48 hours, read-out: Minimum Inhibitory Concentration (MIC), Bs
Experimental: as §1, §2, §3, §4, §5, §6

[5] = tested on: Enterobacter aerogenes (Ea); assay: MIC for Enterobacter aerogenes, nutrient agar; assay type: cell-based, Enterobacter aerogenes ATCC 13048; conditions: Klebsiella aerogenes, nutrient agar, 30° C., 48 hours, read-out: Minimum Inhibitory Concentration (MIC), Ea
Experimental: as §1, §2, §3, §4, §5, §6

[6] = tested on: Klebsiella pneumonias (Kp); assay: MIC for Klebsiella pneumonias, nutrient agar; assay type: cell-based, Klebsiella pneumonias ATCC 8308; conditions: 30° C., 48 hours, read-out: Minimum Inhibitory Concentration (MIC), Kp
Experimental: as §1, §2, §3, §4, §5, §6

Trichoderma viride (Tv) = assay: MIC for Trichoderma viride, malt yeast agar; assay type: cell-based, Trichoderma viride ATCC 8678; conditions: malt yeast agar; 30° C., 72 hours for fungi; read-out: Minimum Inhibitory Concentration (MIC), Tv
Experimental: as §1, §7, §3, §8, §6

Aspergillus niger (An) = assay: MIC for Aspergillus niger, malt yeast agar; assay type: cell-based, Aspergillus niger ATCC 16404; conditions: malt yeast agar; 30° C., 72 hours for fungi; read-out: Minimum Inhibitory Concentration (MIC), An
Experimental: as §1, §7, §3, §8, §6

[7] = tested on: Staphylococcus aureus (Sa); assay: MIC for Staphylococcus aureus, nutrient agar; assay type: cell-based, Staphylococcus aureus ATCC 6538; conditions: 30° C., 48 hours, read-out: Minimum Inhibitory Concentration (MIC), Sa
Experimental: as §1, §2, §3, §4, §5, §6

Structure (SMILES) | MIC (Proteus vulgaris (Pv); pH 6.8, nutrient agar) [mg/L] | MIC (Proteus vulgaris (Pv); pH 8.2, nutrient agar) [mg/L] | MIC ([1]; pH 8.2, 30° C.) [mg/L] | MIC (Salmonella choleraesuis; pH 6.8, nutrient agar) [mg/L] | MIC (Salmonella choleraesuis; pH 8.2, nutrient agar) [mg/L] | MIC [2] [mg/L] | MIC (Saccharomyces cerevisiae) [mg/L] | MIC ([3]; pH 6.8, nutrient agar) [mg/L] | MIC ([3]; pH 8.2, nutrient agar) [mg/L] | MIC [4] [mg/L] | MIC (Candida albicans (Ca)) [mg/L] | MIC (Escherichia coli (Ec); pH 6.8, nutrient agar) [mg/L] | MIC (Escherichia coli (Ec); pH 8.2, nutrient agar) [mg/L] | MIC (Fusarium oxysporum (Fo)) [mg/L] | MIC (Bacillus subtilis (Bs); pH 6.8, nutrient agar) [mg/L] | MIC (Bacillus subtilis (Bs); pH 8.2, nutrient agar) [mg/L] | MIC ([5]; pH 6.8) [mg/L] | MIC ([5]; pH 8.2) [mg/L] | MIC ([6]; pH 6.8, nutrient agar) [mg/L] | MIC ([6]; pH 8.2, nutrient agar) [mg/L] | other results
N#CC1=C(C#N)Sc2c(cnn(-c3ccc(Cl)cc3Cl)c2=O)S1 [G, 5,6-dihydro-6-(2,4-dichlorophenyl)-5-oxo-1,4-dithiino-(2,3-d)-pyridazine-2,3-dicarbonitrile] | 500 (≈ 1320 µM) | > 500 | > 500 | 500 (≈ 1320 µM) | > 500 | 50 (≈ 132 µM) | 50 (≈ 132 µM) | 500 (≈ 1320 µM) | > 500 | 100 (≈ 264 µM) | 50 (≈ 132 µM) | 250 (≈ 659 µM) | > 500 | 100 (≈ 264 µM) | 25 (≈ 65.9 µM) | 250 (≈ 659 µM) | > 500 | > 500 | 250 (≈ 659 µM) | 500 (≈ 1320 µM) | MIC (Trichoderma viride (Tv)): 250 mg/L (≈ 659 µM); MIC (Aspergillus niger (An)): 100 mg/L (≈ 264 µM); MIC ([7]; pH 6.8, nutrient agar): 100 mg/L (≈ 264 µM); MIC ([7]; pH 8.2, nutrient agar): 250 mg/L (≈ 659 µM)
N#CC1=C(C#N)Sc2c(cnn(-c3ccc([N+](=O)[O-])cc3)c2=O)S1 [H, 5,6-dihydro-6-(4-nitrophenyl)-5-oxo-1,4-dithiino-(2,3-d)-pyridazine-2,3-dicarbonitrile] | > 500 | > 500 | > 500 | > 500 | > 500 | > 500 | > 500 | > 500 | > 500 | > 500 | > 500 | > 500 | > 500 | > 500 | > 500 | > 500 | > 500 | > 500 | > 500 | > 500 | MIC ([1]; pH 6.8, 30° C.): > 500 mg/L; MIC (Trichoderma viride (Tv)): > 500 mg/L; MIC (Aspergillus niger (An)): > 500 mg/L; MIC ([7]; pH 6.8, nutrient agar): > 500 mg/L; MIC ([7]; pH 8.2, nutrient agar): > 500 mg/L
N#CC1=C(C#N)Sc2c(cnn(Cc3ccccc3)c2=O)S1 [I, 5,6-dihydro-6-(phenylmethyl)-5-oxo-1,4-dithiino-(2,3-d)-pyridazine-2,3-dicarbonitrile] | 100 (≈ 308 µM) | > 500 | > 500 | 250 (≈ 771 µM) | > 500 | < 10 | < 10 | > 500 | > 500 | 25 (≈ 77.1 µM) | < 10 | > 500 | > 500 | < 10 | < 10 | 100 (≈ 308 µM) | > 500 | > 500 | 100 (≈ 308 µM) | > 500 | MIC ([1]; pH 6.8, 30° C.): 250 mg/L (≈ 771 µM); MIC (Trichoderma viride (Tv)): 25 mg/L (≈ 77.1 µM); MIC (Aspergillus niger (An)): 25 mg/L (≈ 77.1 µM); MIC ([7]; pH 6.8, nutrient agar): 50 mg/L (≈ 154 µM); MIC ([7]; pH 8.2, nutrient agar): > 500 mg/L
N#CC1=C(C#N)Sc2c(cnn(Cc3ccc(Cl)cc3)c2=O)S1 [J, 5,6-dihydro-6-((4-chlorophenyl)methyl)-5-oxo-1,4-dithiino-(2,3-d)-pyridazine-2,3-dicarbonitrile] | 250 (≈ 697 µM) | > 500 | > 500 | > 500 | > 500 | < 10 | < 10 | > 500 | > 500 | < 10 | < 10 | 100 (≈ 279 µM) | > 500 | < 10 | < 10 | 50 (≈ 139 µM) | > 500 | > 500 | > 500 | > 500 | MIC ([1]; pH 6.8, 30° C.): > 500 mg/L; MIC (Trichoderma viride (Tv)): 25 mg/L (≈ 69.7 µM); MIC (Aspergillus niger (An)): < 10 mg/L; MIC ([7]; pH 6.8, nutrient agar): 25 mg/L (≈ 69.7 µM); MIC ([7]; pH 8.2, nutrient agar): 100 mg/L (≈ 279 µM)
